Experimental data as given in patent publication US7435837B2, “Dihydrobenzofuranyl alkanamine derivatives and methods for using same” (Wyeth, priority 2003, dated 2008).
Where two headings read alike, the source gives them in different places.

Target: T1, human 5-HT2C receptor (Homo sapiens, UniProt P28335)
T1 sequence (P28335 33-458): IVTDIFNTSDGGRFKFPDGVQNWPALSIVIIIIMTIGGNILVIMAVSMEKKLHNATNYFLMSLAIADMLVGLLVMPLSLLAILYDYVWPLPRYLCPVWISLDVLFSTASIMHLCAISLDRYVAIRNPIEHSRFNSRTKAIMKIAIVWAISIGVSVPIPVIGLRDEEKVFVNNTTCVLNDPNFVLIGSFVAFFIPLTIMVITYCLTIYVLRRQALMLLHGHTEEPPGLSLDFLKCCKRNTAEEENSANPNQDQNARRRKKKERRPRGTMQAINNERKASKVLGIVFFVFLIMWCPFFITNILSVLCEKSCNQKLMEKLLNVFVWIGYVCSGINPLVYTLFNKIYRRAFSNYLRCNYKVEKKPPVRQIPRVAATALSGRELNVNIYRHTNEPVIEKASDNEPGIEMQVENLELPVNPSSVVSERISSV
Experiment: 5-HT2C receptor-stimulated calcium mobilization (FLIPR) in CHO cells;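 note: Fluo-3-AM fluorescence read on FLIPR every 1 s, agonist added after 10 baseline reads, response taken as peak minus lowest raw fluorescence count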
Assay type: cell-based
Conditions: for Emax: CHO; for EC50: calcium mobilization, CHO cells stably expressing human 5-HT2C, read-out: 5-HT2C Function EC50

[1] = percentage of the response observed with a maximally effective concentration of 5-HT, read-out: 5-HT2C Function Emax (%)
[2] = percentage of the response observed with a maximally effective concentration of 5-HT

Compound	Emax [1]	EC50	5-HT2C Function Emax (%) [2]	Emax (read-out: 5-HT2C Function Emax (%), percentage of the response observed with a maximally effective concentration of 5-HT)
Cc1cccc(C)c1-c1cc(Cl)cc2c1OC(CNC1CCC1)C2 (racemic) [Example 269, (±)-N-{[5-chloro-7-(2,6-dimethylphenyl)-2,3-dihydro-1-benzofuran-2-yl]methyl}cyclobutanamine]	20%	5.12 µM	–	–
Cc1cccc(C)c1-c1cc(Cl)cc2c1OC(CNC1CC1)C2 (racemic) [Example 267, (±)-N-{[5-chloro-7-(2,6-dimethylphenyl)-2,3-dihydro-1-benzofuran-2-yl]methyl}cyclopropanamine]	80%	0.73 µM	–	–
Cc1cccc(C)c1-c1cc(Cl)cc2c1OC(CN)C2 (single isomer, unassigned; (+)) [Example 262, (+)-{[5-chloro-7-(2,6-dimethylphenyl)-2,3-dihydro-1-benzofuran-2-yl]methyl}amine]	–	0.471 µM	70%	–
CNCC1Cc2cc(F)cc(-c3ccc(Cl)cc3Cl)c2O1 (single isomer, unassigned; (-)) [Example 446]	–	0.46 µM	–	70%
NC[C@H]1Cc2cc(F)cc(-c3c(Cl)cccc3Cl)c2O1 [Example 550, (−)-{[7-(2,6-dichlorophenyl)-5-fluoro-2,3-dihydro-1-benzofuran-2-yl]methyl}amine]	100%	–	–	–
Cc1cccc(C)c1-c1cc(Cl)cc2c1OC(CNC(C)C)C2 (racemic) [Example 272, (±)-N-{[5-chloro-7-(2,6-dimethylphenyl)-2,3-dihydro-1-benzofuran-2-yl]methyl}propan-2-amine]	70%	0.845 µM	–	–
NCC1Cc2cc(Cl)cc(-c3cccc(F)c3F)c2O1 (racemic) [Example 246, (±)-{[5-chloro-7-(2,3-difluorophenyl)-2,3-dihydro-1-benzofuran-2-yl]methyl}amine]	–	–	90%	–

Second part, led by results:

Emax [1]	EC50	5-HT2C Function Emax (%) [2]	Compound	Emax (read-out: 5-HT2C Function Emax (%), percentage of the response observed with a maximally effective concentration of 5-HT)
70%	0.155 µM	–	Cc1cccc(C)c1-c1cc(Cl)cc2c1OC(CN1CCNCC1)C2 (racemic) [Example 279, (±)-1-{[5-chloro-7-(2,6-dimethylphenyl)-2,3-dihydro-1-benzofuran-2-yl]methyl}piperazine]	–
100%	0.009 µM	–	CNCC1Cc2cccc(-c3ccc(Cl)cc3Cl)c2O1 (racemic) [Example 425, (±)-[(N-methyl-1-[7-(2,4-dichlorophenyl)-2,3-dihydro-1-benzofuran-2-yl]methanamine]	–
90%	0.063 µM	–	CNCC1Cc2cccc(-c3cc(Cl)ccc3C)c2O1 (racemic) [Example 431, (±)-[(N-methyl-1-[7-(5-chloro-2-methylphenyl)-2,3-dihydro-1-benzofuran-2-yl]methanamine]	–
80%	0.298 µM	–	CNCC1Cc2cccc(-c3cc(C)ccc3C)c2O1 (racemic) [Example 427, (±)-[(N-methyl-1-[7-(2,5-dimethylphenyl)-2,3-dihydro-1-benzofuran-2-yl]methanamine]	–
90%	0.065 µM	–	Cc1cccc(-c2cccc3c2OC(CN)C3)c1C (racemic) [Example 154, (±)-1-[7-(2,3-dimethylphenyl)-2,3-dihydro-1-benzofuran-2-yl]methanamine]	–
70%	0.123 µM	–	CC(C)NCC1Cc2cc(F)cc(-c3c(Cl)cccc3Cl)c2O1 (racemic) [Example 236, (±)-N-{[7-(2,6-dichlorophenyl)-5-fluoro-2,3-dihydro-1-benzofuran-2-yl]methyl}propan-2-amine]	–
80%	0.079 µM	–	CNCC1Cc2cc(Cl)cc(-c3ccccc3F)c2O1 (racemic) [Example 462, (±)-[(5-chloro-7-(2-fluorophenyl)-2,3-dihydro-1-benzofuran-2-yl]methyl}methylamine]	–
90%	0.215 µM	–	CNCC1Cc2cc(Cl)cc(-c3ccccc3OC)c2O1 (racemic) [Example 460, (±)-[(5-chloro-7-(2-methoxyphenyl)-2,3-dihydro-1-benzofuran-2-yl]methyl}methylamine]	–
